Data: patent US20260308222A1, “STABILIZED ANALOGUES OF CALCITONIN” (YISSUM RESEARCH DEVELOPMENT COMPANY OF THE HEBREW …, priority 2024, published 2026)
Where “and” joins values, the source holds several entries; their conditions need not be identical. Equal entries are not always repeated. Bridge positions count the residues as written; N and C are the ends. Square brackets hold non-standard residues; d marks the D form. Peptide text beside a SMILES is read from it. Sec = N[C@@H](C[SeH])C(=O)O

Tests used:
[1] = biological target: T1, calcitonin receptor (CTR) (Homo sapiens, UniProt P30988); experiment: cAMP accumulation assay, U2OS Red cAMPNomad-CALCR cell line; assay type: cell-based; parameters: expressed in transfected cells; host or cells: U2OS Red cAMPNomad-CALCR; conditions: U2OS Red cAMPNomad-CALCR cells; for EC50: overnight incubation, read-out: cAMP EC50
T1 sequence (P30988 25-474): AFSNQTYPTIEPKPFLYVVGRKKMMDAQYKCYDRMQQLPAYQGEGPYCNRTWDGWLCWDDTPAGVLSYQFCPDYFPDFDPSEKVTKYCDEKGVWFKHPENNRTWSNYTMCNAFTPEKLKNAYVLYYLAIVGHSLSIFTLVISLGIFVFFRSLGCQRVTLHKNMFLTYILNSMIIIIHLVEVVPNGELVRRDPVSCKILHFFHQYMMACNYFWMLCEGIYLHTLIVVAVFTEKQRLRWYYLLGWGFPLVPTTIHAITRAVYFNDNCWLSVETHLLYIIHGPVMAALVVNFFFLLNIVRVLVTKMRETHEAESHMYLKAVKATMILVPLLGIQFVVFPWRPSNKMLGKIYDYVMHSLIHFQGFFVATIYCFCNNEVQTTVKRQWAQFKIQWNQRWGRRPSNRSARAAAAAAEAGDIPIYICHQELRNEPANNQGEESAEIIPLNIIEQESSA

[2] = Degradation in simulated gastric fluid (SGF); assay type: in vitro ADME; conditions: for half-life: simulated gastric fluid, pH 1.3, pepsin 0.2 mg/mL stock, read-out: SGF t1/2
Method: sCT and its analogues were evaluated for their degradation in simulated gastric fluid (SGF). The stock solution of each analogue was prepared by dissolving 2 mg of the peptide in 1 mL water. The stock solution of pepsin enzyme was prepared by dissolving 5 mg of pepsin in 5 mL of 10 mM HCl (1 mg/mL), and then was diluted to a 0.2 mg/mL with 10 mM HCl. 7 For degradation, 34 μL of pepsin (0.2 mg/mL) was added to 100 μL of peptide (2 mg/mL) at pH 1.3 and the reaction incubated at 37° C. To monitor the degradation, 10 μL of the reaction aliquots were taken and quenched with 10 μL of 10 mM NaOH every 30 min for several hours and analyzed by HPLC using XSelect C18 column ([…], 130 A, 4.6×150 mm) with a gradient of 5-70% of 0.1% TFA in MeCN over 20 min with monitoring at 220 nm.

[3] = Degradation in simulated intestinal fluid (SIF)
[4] = biological target: T1, calcitonin receptor (CTR); experiment: Ca^2+ concentration assay, HEK293 CALCR-HiTSeeker cell line; assay type: cell-based; parameters: expressed in transfected cells; conditions: HEK293 CALCR-HiTSeeker cells; read-out: Ca^2+ EC50
[5] = Circular dichroism analysis, percent α-helicity; assay type: physicochemical; conditions: 10 mM phosphate buffer pH 7, SDS; for % α helicity: 10-30 μM peptide, 2 h folding
Method: Following synthesis of the calcitonin analogues, the helicity of the calcitonin analogues was assessed by circular dichroism analysis. Far ultraviolet spectra (FIG. 6) were obtained from 195-260 nm on J-180 spectropolarimeter (Jasco) using 10-30 μM of sCT and all analogues in 10 mM phosphate buffer pH 7 and in the presence of sodium dodecyl sulphate (SDS), which were left for 2 h to allow folding. Each spectrum represents the average of 3 scans, and the mean residue ellipticity (θMRE) was calculated according to the following equation: […]
Percentage helicity of peptides as presented in Table 2 was calculated according to the following equation (Sommese, et al. 2010): […]
where n is the number of amino acids in the peptide.

SGF t1/2 ([2]; pepsin 0.2 mg/mL stock, pH 1.3, 37 °C) | half-life in SGF relative to sCT ([2]; pepsin, pH 1.3, 37 °C, vs sCT) | half-life ([2]; pH 1.3, 37 °C) | improvement in stability in simulated gastric fluid over sCT ([2]; vs sCT, first figure of sentence) | SIF t1/2 ([3]; pancreatin 2 mg/mL stock, pH 6.8, 37 °C) | half-life ([3]; simulated intestinal fluid, pH 6.8, SIF t1/2, pancreatin 2 mg/mL stock, pH 6.8, 37 °C) | improvement in stability in simulated gastric fluid ([3]; vs sCT, second figure of sentence) | SMILES | EC50 [1] | stability in SIF compared to sCT ([3]; pancreatin, pH 6.8, 37 °C, vs sCT) | EC50 [4] | % α helicity [5] | cAMP EC50 / potency [1] | helicity retained following cyclization [5]
170.6 ± 32.2 min | five-fold longer half-life | 170 min | 5 fold | 41.9 ± 6.1 min | 42 min | 6 fold | CC(C)C[C@@H]1NC(=O)[C@@H](NC(=O)CNC(=O)[C@H](CC(C)C)NC(=O)[C@@H](NC(=O)[C@@H]2CSSC[C@H](N)C(=O)N[C@@H](CO)C(=O)N[C@@H](CC(N)=O)C(=O)N[C@@H](CC(C)C)C(=O)N[C@@H](CO)C(=O)N[C@@H]([C@@H](C)O)C(=O)N2)C(C)C)CCCCNCc2cc(ccc2O)C[C@@H](C(=O)N2CCC[C@H]2C(=O)N[C@@H](CCC(N)=O)C(=O)N[C@H](C(=O)N[C@@H](CC(N)=O)C(=O)N[C@H](C(=O)NCC(=O)N[C@@H](CO)C(=O)NCC(=O)N[C@H](C(=O)N2CCC[C@H]2C(N)=O)[C@@H](C)O)[C@@H](C)O)[C@@H](C)O)NC(=O)[C@H]([C@@H](C)O)NC(=O)[C@H](CCC(N)=O)NC(=O)[C@H](CC(C)C)NC(=O)[C@H](CCCCN)NC(=O)[C@H](Cc2c[nH]cn2)NC(=O)[C@H](CC(C)C)NC(=O)[C@H](CCC(=O)O)NC(=O)[C@H](CCC(N)=O)NC(=O)[C@H](CO)NC1=O [KaY-1(R24Q)] | 2.67 nM and 2.7 nM | six-fold enhancement in stability compared to sCT | 216 ± 43.8 nM |  |  | 
 |  | 34.5 ± 0.3 min |  |  |  |  | CC(C)C[C@H](NC(=O)[C@H](CCCCN)NC(=O)CNC(=O)[C@H](CC(C)C)NC(=O)[C@@H](NC(=O)[C@@H]1CSSC[C@H](N)C(=O)N[C@@H](CO)C(=O)N[C@@H](CC(N)=O)C(=O)N[C@@H](CC(C)C)C(=O)N[C@@H](CO)C(=O)N[C@@H]([C@@H](C)O)C(=O)N1)C(C)C)C(=O)N[C@@H](CO)C(=O)N[C@@H](CCC(N)=O)C(=O)N[C@@H](CCC(=O)O)C(=O)N[C@@H](CC(C)C)C(=O)N[C@@H](Cc1c[nH]cn1)C(=O)N[C@H]1CCCCNCc2cc(ccc2O)C[C@@H](C(=O)N2CCC[C@H]2C(=O)N[C@@H](CCCNC(=N)N)C(=O)N[C@H](C(=O)N[C@@H](CC(N)=O)C(=O)N[C@H](C(=O)NCC(=O)N[C@@H](CO)C(=O)NCC(=O)N[C@H](C(=O)N2CCC[C@H]2C(N)=O)[C@@H](C)O)[C@@H](C)O)[C@@H](C)O)NC(=O)[C@H]([C@@H](C)O)NC(=O)[C@H](CCC(N)=O)NC(=O)[C@H](CC(C)C)NC1=O [KaY-2] |  |  |  | 56.2% |  | 

SMILES | SGF t1/2 ([2]; pepsin 0.2 mg/mL stock, pH 1.3, 37 °C) | half-life in SGF relative to sCT ([2]; pepsin, pH 1.3, 37 °C, vs sCT) | half-life ([2]; pH 1.3, 37 °C) | improvement in stability in simulated gastric fluid over sCT ([2]; vs sCT, first figure of sentence) | SIF t1/2 ([3]; pancreatin 2 mg/mL stock, pH 6.8, 37 °C) | half-life ([3]; simulated intestinal fluid, pH 6.8, SIF t1/2, pancreatin 2 mg/mL stock, pH 6.8, 37 °C) | improvement in stability in simulated gastric fluid ([3]; vs sCT, second figure of sentence) | EC50 [1] | stability in SIF compared to sCT ([3]; pancreatin, pH 6.8, 37 °C, vs sCT) | EC50 [4] | % α helicity [5] | cAMP EC50 / potency [1] | helicity retained following cyclization [5]
CC(C)C[C@H](NC(=O)[C@H](CCCCN)NC(=O)CNC(=O)[C@H](CC(C)C)NC(=O)[C@@H](NC(=O)[C@@H]1C[Se][Se]C[C@H](N)C(=O)N[C@@H](CO)C(=O)N[C@@H](CC(N)=O)C(=O)N[C@@H](CC(C)C)C(=O)N[C@@H](CO)C(=O)N[C@@H]([C@@H](C)O)C(=O)N1)C(C)C)C(=O)N[C@@H](CO)C(=O)N[C@@H](CCC(N)=O)C(=O)N[C@@H](CCC(=O)O)C(=O)N[C@@H](CC(C)C)C(=O)N[C@@H](Cc1c[nH]cn1)C(=O)N[C@@H](CCCCN)C(=O)N[C@@H](CC(C)C)C(=O)N[C@@H](CCC(N)=O)C(=O)N[C@H](C(=O)N[C@@H](Cc1ccc(O)cc1)C(=O)N1CCC[C@H]1C(=O)N[C@@H](CCCNC(=N)N)C(=O)N[C@H](C(=O)N[C@@H](CC(N)=O)C(=O)N[C@H](C(=O)NCC(=O)N[C@@H](CO)C(=O)NCC(=O)N[C@H](C(=O)N1CCC[C@H]1C(N)=O)[C@@H](C)O)[C@@H](C)O)[C@@H](C)O)[C@@H](C)O [Se-CT] (H-[Sec]SNLST[Sec]VLGKLSQELHKLQTYPRTNTGSGTP-NH2; diselenide 1-7) |  |  | 32.6 ± 0.5 min |  |  |  |  | 82.7 ± 16.5 nM |  | 113 ± 18.3 nM | 99.2% | EC50 in the nanomolar range | retain the high degree of helicity
